# How the values were obtained:
# KaiC [1] = target: T1, KaiC (Synechococcus elongatus, UniProt Q79PF4, S229T/T240N); assay: HPLC ADP production (ATPase); type: biochemical; conditions: 1 mM ATP, 5 mM MgCl2, 150 mM NaCl, pH 8.0, 25 C
# T1 construct: full-length (CI 1-268, CII 269-519), pGEX-6P-1 (GST) in E. coli BL21, purified, hexamer
# KaiC [2] = target: T2, KaiC (Synechococcus elongatus, UniProt Q79PF4); assay: HPLC ADP production (ATPase); type: biochemical; conditions: 1 mM ATP, 5 mM MgCl2, 150 mM NaCl, pH 8.0, 25 C
# T2 construct: full-length (CI 1-268, CII 269-519), pGEX-6P-1 (GST) in E. coli BL21, purified, hexamer
# T2 sequence (Q79PF4 1-519): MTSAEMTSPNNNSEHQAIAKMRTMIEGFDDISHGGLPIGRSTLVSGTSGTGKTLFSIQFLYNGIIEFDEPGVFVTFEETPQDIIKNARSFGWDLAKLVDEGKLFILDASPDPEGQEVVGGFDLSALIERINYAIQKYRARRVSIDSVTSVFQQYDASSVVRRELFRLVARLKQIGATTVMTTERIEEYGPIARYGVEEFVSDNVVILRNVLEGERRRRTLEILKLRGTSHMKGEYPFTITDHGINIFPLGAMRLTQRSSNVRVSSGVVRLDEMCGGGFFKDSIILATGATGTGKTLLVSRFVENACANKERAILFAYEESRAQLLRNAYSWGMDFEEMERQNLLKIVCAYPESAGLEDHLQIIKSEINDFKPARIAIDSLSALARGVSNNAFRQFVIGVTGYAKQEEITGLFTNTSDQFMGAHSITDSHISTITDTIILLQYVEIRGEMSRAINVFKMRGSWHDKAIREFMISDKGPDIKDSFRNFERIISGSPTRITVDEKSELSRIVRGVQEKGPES
# T1 sequence (Q79PF4 whole entry S229T/T240N): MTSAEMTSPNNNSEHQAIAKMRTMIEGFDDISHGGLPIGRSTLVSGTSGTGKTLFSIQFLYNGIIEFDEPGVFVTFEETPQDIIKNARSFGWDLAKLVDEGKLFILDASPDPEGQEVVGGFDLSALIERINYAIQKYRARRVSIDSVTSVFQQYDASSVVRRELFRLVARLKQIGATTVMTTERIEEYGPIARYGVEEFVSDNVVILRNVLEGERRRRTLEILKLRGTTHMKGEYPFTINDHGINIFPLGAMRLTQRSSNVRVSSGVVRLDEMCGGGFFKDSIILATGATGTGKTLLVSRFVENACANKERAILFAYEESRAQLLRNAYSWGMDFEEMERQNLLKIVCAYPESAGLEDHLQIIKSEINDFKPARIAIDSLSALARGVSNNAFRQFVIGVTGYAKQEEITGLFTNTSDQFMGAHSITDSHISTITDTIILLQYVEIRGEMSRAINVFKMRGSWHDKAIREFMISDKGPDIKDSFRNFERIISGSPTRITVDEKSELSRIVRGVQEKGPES
compound,measurement,setting,value
Nc1ncnc2c1ncn2[C@@H]1O[C@H](COP(=O)(O)OP(=O)(O)OP(=O)(O)O)[C@@H](O)[C@H]1O [ATP],HPLC ADP production (ATPase),KaiC [1],the activity of ATP hydrolysis was significantly repressed in the double mutants
same,HPLC ADP production (ATPase),KaiC [2],ATPase activity of anKaiC was significantly lower than that of KaiC

# — publication PMC12084410, “Reconstruction of the ancient cyanobacterial proto-circadian clock system KaiABC” (The EMBO Journal, 2025)
